Common to all, as to format: in vivo
For one test, the system named is Blattella germanica. The experiment in a line: Insecticidal test, Blattella germanica (cockroach nymphs), residual. To be noted: 72 h, plastic pot, 3 days, read-out: grading of mortality, BG. The method in brief:
(§1)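 Compound dissolved in acetone, diluted with water containing 0.01% wetting agent to 500, 250 or 100 ppm. Pests on host plant or food; pests and/or medium treated. Mortality scored 1–3 days later, graded A (80–100%; 70–100% for S. exigua), B (50–79%; 50–69%), C (<50%).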

The subject of another test is Myzus persicae. The experiment in a line: Insecticidal test, Myzus persicae (aphids), contact. To be noted: 72 h, Chinese Cabbage leaf, 3 days, read-out: grading of mortality, MP. The method in brief:
as §1

For another test, the system named is Heliothis virescens. The experiment in a line: whole plant or invertebrate. To be noted: in Gossypium hirsutum, 72 h, read-out: grading of mortality, HV. The method in brief: as §1
The subject of another test is Tetranychus urticae. The experiment in a line: Insecticidal/acaricidal test, Tetranychus urticae (spider mites - adult), contact. To be noted: 72 h, French bean leaf, 3 days, read-out: grading of mortality, TU. In a few lines: as §1
For test [1], the system named is Musca domestica. The experiment in a line: Knockdown test, Musca domestica (houseflies - adults). To be noted: cotton wool/sugar, 4 hours, read-out: grading of knockdown, MD/KD. In a few lines: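 Adult houseflies were exposed to the compound as aqueous acetone preparations with 0.01% Lissapol NX wetting agent, at 500, 250 or 100 ppm. Knockdown was graded A (80–100%), B (50–79%) or C (<50%).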

The test system of the next test is Diabrotica balteata. The experiment in a line: Insecticidal test, Diabrotica balteata (rootworm larvae), residual. To be noted: 72 h, filter paper/maize seed, 3 days, read-out: grading of mortality, DB. The method in brief: as §1
The subject of the next test is Spodoptera exigua. The experiment in a line: Insecticidal test, Spodoptera exigua (lesser armyworm), residual. To be noted: 72 h, cotton leaf, 3 days, read-out: grading of mortality, SE. The protocol: The activity of the Product was determined using a variety of insect and acarine pests. The Product was used in the form of liquid preparations containing 500, 250 or 100 parts per million (ppm) by weight of the Product. The preparations were made by dissolving the Product in acetone and diluting the solutions with water containing 0.01% by weight of a wetting agent sold under the trade name "LISSAPOL" NX until the liquid preparations contained the required concentratio of the Product. "Lissapol" is a Registered Trade Mark.
The test procedure adopted with regard to each pest was basically the same and comprised supporting a number of the pests on a medium which was usually a host plant or a foodstuff on which the pests feed, and treating either or both the pests and the medium with the preparations. The mortality of the pests was then assessed at periods usually varying from one to three days after the treatment.
The results of the tests are given in Table IV for each of the Products, at the rate in parts per million given in the second column as a grading of mortality designated as A, B or C wherein A indicates 80-100% mortality or knockdown (70-100% in the case of Spodoptera exigua), B indicates 50-79% mortality or knockdown (50-69% in the case of Spodoptera exigua) and C indicates less than 50% mortality or knockdown.
In Table IV the pest organism used is designated by a letter code and the pest species, the support medium or food, and the type and duration of test is given in Table III.

For test [2], the system named is Musca domestica. The test can be described thus: Insecticidal test, Musca domestica (houseflies - adults), contact. To be noted: 24 h, cotton wool/sugar, 1 day, read-out: grading of mortality, MD. In a few lines: as §1
A further test relates to Nilaparvata lugens. The test can be described thus: Insecticidal test, Nilaparvata lugens (brown planthopper), contact. To be noted: 72 h, Cabbage leaf, 3 days, read-out: grading of mortality, NL. In a few lines: as §1

Consider `OC(COCc1cccc(Oc2ccc(Cl)cc2)c1)(c1ccc2c(c1)OCO2)C(F)(F)F` (stereo not drawn) [Compound 129, 1,1,1-Trifluoro-2-(3,4-methylenedioxyphenyl)-3-(3-(4-chlorophenoxy)benzyloxy)propan-2-ol], for which the mortality at 500 ppm in the test on Blattella germanica was < 50%; in the test with Myzus persicae it was 50 to 79%; in the test with Heliothis virescens, 50 to 79%; with Tetranychus urticae, < 50%; in the test on Diabrotica balteata it was < 50%; with Spodoptera exigua it was 70 to 100%. Further, the mortality at 500 ppm with Musca domestica [2] and with Nilaparvata lugens was 80 to 100% each time. Also, the pest or weed control at 500 ppm in the test with Musca domestica [1] lay in the range of 80 to 100%.
Regarding `Fc1ccc(COCC(c2ccc(OC(F)(F)F)cc2)C(F)(F)F)cc1Oc1ccccc1` (stereo not drawn) [Compound 25, 1,1,1-Trifluoro-2-(4-trifluoromethoxyphenyl)-3-(3-phenoxy-4-fluorobenzyloxy)propane], the mortality at 100 ppm with Blattella germanica was in the range of 80 to 100%; in the test on Myzus persicae, 80 to 100%; in the test on Heliothis virescens, 80 to 100%; in the test with Tetranychus urticae, 80 to 100%; with Diabrotica balteata, 80 to 100%; with Spodoptera exigua, 70 to 100%. The mortality at 100 ppm in the test with Musca domestica [2] and in the test on Nilaparvata lugens was 80 to 100% each time. Moreover, the pest or weed control at 100 ppm in the test with Musca domestica [1] lay in the range of 80 to 100%.
With `CCOc1ccc(C(COCc2cccc(Nc3ccc(F)cc3)c2)C(F)(F)F)cc1` (stereo not drawn) [Compound 11, 1,1,1-Trifluoro-2-(4-ethoxyphenyl)-3-(3-(4-fluorophenylamino)benzyloxy)propane], the mortality at 500 ppm in the test on Blattella germanica was 50 to 79%; in the test with Myzus persicae, < 50%; in the test on Heliothis virescens, < 50%; in the test with Tetranychus urticae, < 50%; in the test on Diabrotica balteata it was < 50%; in the test on Spodoptera exigua, 50 to 69%. The mortality at 500 ppm in the test with Musca domestica [2] lay within 50 to 79%; with Nilaparvata lugens, 80 to 100%. Also, the pest or weed control at 500 ppm in the test with Musca domestica [1] fell in the range of 80 to 100%.
Turning to `OC(COCc1ccc(F)c(Oc2ccccc2)c1)(c1ccc(Br)cc1)C(F)(F)F` (stereo not drawn) [Compound 127, 1,1,1-Trifluoro-2-(4-bromophenyl)-3-(3-phenoxy-4-fluorobenzyloxy)propan-2-ol], the mortality at 500 ppm in the test with Blattella germanica was < 50%; in the test with Myzus persicae, < 50%; in the test on Heliothis virescens it was < 50%; in the test on Tetranychus urticae, < 50%; in the test on Diabrotica balteata, 80 to 100%; with Spodoptera exigua it was 50 to 69%. Also, the values for the mortality at 500 ppm in the test with Musca domestica [2] and in the test with Nilaparvata lugens were 50 to 79% and < 50%, respectively. For the same compound, the pest or weed control at 500 ppm in the test with Musca domestica [1] was 80 to 100%.
Take `FC(F)(F)Oc1ccc(C(Cl)(COCc2cccc(Oc3ccccc3)n2)C(F)(F)F)cc1` (stereo not drawn) [Compound 61]: the mortality at 100 ppm lay within 80 to 100% in the test on Blattella germanica; 80 to 100% in the test with Myzus persicae; 80 to 100% with Heliothis virescens; 80 to 100% in the test on Tetranychus urticae; 80 to 100% with Diabrotica balteata; 70 to 100% in the test on Spodoptera exigua. Besides, the mortality at 100 ppm in the test with Musca domestica [2] and in the test on Nilaparvata lugens was 80 to 100% throughout. For the same compound, in the test with Musca domestica [1], the pest or weed control at 100 ppm was 80 to 100%.
`COCc1ccc(C(COCc2cccc(Oc3ccccc3)c2)C(F)(F)F)cc1` (stereo not drawn) [Compound 24, 1,1,1-Trifluoro-2-(4-methoxymethylphenyl)-3-(3-phenoxybenzyloxy)propane]: the mortality at 100 ppm in the test with Blattella germanica was 80 to 100%; in the test on Myzus persicae it was 80 to 100%; in the test on Heliothis virescens it was 50 to 79%; with Tetranychus urticae, < 50%; with Diabrotica balteata it was 80 to 100%; with Spodoptera exigua it was 70 to 100%. Also, the mortality at 100 ppm in the test on Musca domestica [2] and in the test with Nilaparvata lugens was 80 to 100% throughout. For the same compound, the pest or weed control at 100 ppm in the test with Musca domestica [1] fell in the range of 80 to 100%.
As to `OC(COCc1cccc(Oc2ccccc2)n1)(c1ccc(OC(F)(F)F)cc1)C(F)(F)F` (stereo not drawn) [Compound 136, 1,1,1-Trifluoro-2-(4-trifluoromethoxyphenyl)-3-(6-phenoxy-2-pyridylmethyloxy)propan-2-ol], the mortality at 500 ppm is < 50% in the test with Blattella germanica; < 50% in the test with Myzus persicae; 50 to 79% in the test with Heliothis virescens; < 50% with Tetranychus urticae; 80 to 100% in the test with Diabrotica balteata; < 50% with Spodoptera exigua. The mortality at 500 ppm in the test with Musca domestica [2] is 80 to 100%; in the test on Nilaparvata lugens, < 50%. Also, the pest or weed control at 500 ppm with Musca domestica [1] was 80 to 100%.
Regarding `Fc1ccc(C(COCc2ccc(F)c(Oc3ccccc3)c2)C(F)(F)F)cc1` (stereo not drawn) [Compound 18, 1,1,1-Trifluoro-2-(4-fluorophenyl)-3-(3-phenoxy-4-fluorobenzyloxy)propane], the mortality at 250 ppm was 80 to 100% with Blattella germanica (250 ppm); 80 to 100% with Myzus persicae (250 ppm); 80 to 100% in the test on Heliothis virescens; 80 to 100% with Tetranychus urticae (250 ppm); 80 to 100% in the test with Diabrotica balteata (250 ppm); 70 to 100% in the test with Spodoptera exigua (250 ppm). Besides, the mortality at 250 ppm with Musca domestica [2] (250 ppm) and with Nilaparvata lugens (250 ppm) was 80 to 100% each time. The pest or weed control at 250 ppm with Musca domestica [1] (250 ppm) was in the range of 80 to 100%.
For `CCOc1c(F)cc(C(COCc2ccc(F)c(Oc3ccccc3)c2)C(F)(F)F)cc1F` (racemic) [Compound 166, (RS)-1,1,1-Trifluoro-2-(3,5-difluoro-4-ethoxyphenyl)-3-(3-phenoxy-4-fluorobenzyloxy)propane], the mortality at 500 ppm is 80 to 100% with Blattella germanica; 50 to 79% in the test on Myzus persicae; 80 to 100% with Heliothis virescens; 80 to 100% in the test on Tetranychus urticae; 80 to 100% in the test with Diabrotica balteata; 70 to 100% with Spodoptera exigua. Also, the mortality at 500 ppm in the test with Musca domestica [2] and in the test with Nilaparvata lugens was 80 to 100% throughout. In addition, in the test with Musca domestica [1], the pest or weed control at 500 ppm was 80 to 100%.
For `FC(F)(F)Oc1ccc(C(Cl)(COCc2cccc(Oc3ccc(Cl)cc3)c2)C(F)(F)F)cc1` (stereo not drawn) [Compound 60, 1,1,1-Trifluoro-2-chloro-2-(4-trifluoromethoxyphenyl)-3-(3-(4-chlorophenoxy)benzyloxy)propane], the mortality at 100 ppm is 80 to 100% in the test on Blattella germanica; 50 to 79% in the test with Myzus persicae; 80 to 100% with Heliothis virescens; < 50% in the test with Tetranychus urticae; < 50% in the test on Diabrotica balteata; 70 to 100% with Spodoptera exigua. The mortality at 100 ppm was < 50% in the test on Musca domestica [2] and 80 to 100% with Nilaparvata lugens. Moreover, the pest or weed control at 100 ppm in the test on Musca domestica [1] is < 50%.
Take `OC(COCc1cccc(Oc2ccccc2)c1)(c1ccc(C(F)(F)F)cc1)C(F)(F)F` (stereo not drawn) [Compound 137, 1,1,1-Trifluoro-2-(4-trifluoromethylphenyl)-3-(3-phenoxybenzyloxy)propan-2-ol]: the mortality at 500 ppm in the test on Blattella germanica was < 50%; in the test with Myzus persicae, 80 to 100%; in the test with Heliothis virescens, < 50%; in the test with Tetranychus urticae it was < 50%; in the test with Diabrotica balteata it was < 50%; in the test on Spodoptera exigua, 70 to 100%. The mortality at 500 ppm with Musca domestica [2] and in the test on Nilaparvata lugens was < 50% each time. Further, the pest or weed control at 500 ppm in the test on Musca domestica [1] was < 50%.

For the origin of these results see US5225607A, “Insecticidal ethers” (Imperial Chemical Industries PLC, priority 1985, dated 1993).
